Measured values taken from patent EP2929883A1, “Pyrazole derivatives as dihydroorotate dehydrogenase (DHODH) inhibitors” (INSTITUT PASTEUR, priority 2014, dated 2015).
In brackets after ≈: the same amount, converted by molar mass.

System: measles virus
Test: microbe, parasite or virus in culture
Conditions: Measles morbillivirus, 24 h

CCOc1nn(-c2ncc(OC)cn2)c(C)c1Cc1ccccc1 [example 112, 2-(4-benzyl-3-ethoxy-5-methyl-1H-pyrazol-1-yl)-5-methoxypyrimidine] and CCOc1nn(-c2ccc(OC)cn2)c(C)c1Cc1ccccc1 [example 125, 2-(4-benzyl-3-ethoxy-5-methyl-1H-pyrazol-1-yl)-5-methoxypyridine] fall in the same range of MIC50: 0.5 to 5 µM (≈ 0.162 to 1.62 µg/mL) for the first, 0.5 to 5 µM (≈ 0.162 to 1.62 µg/mL) for the second.

CCOc1nn(-c2nccc(C)n2)c(C)c1Cc1ccccc1 [example 113, 2-(4-benzyl-3-ethoxy-5-methyl-1H-pyrazol-1-yl)-4-methylpyrimidine] and CCOc1nn(-c2ncccn2)c(C)c1Cc1ccccc1 [example 123, 2-(4-benzyl-3-ethoxy-5-methyl-1H-pyrazol-1-yl)pyrimidine] fall in the same range of MIC50: 0.5 to 5 µM (≈ 0.154 to 1.54 µg/mL) for the first, 0.5 to 5 µM (≈ 0.147 to 1.47 µg/mL) for the second.

CCCCc1c(OCC)nn(-c2ncc(CC)cn2)c1C [example 114, 2-(4-butyl-3-ethoxy-5-methyl-1H-pyrazol-1-yl)-5-ethylpyrimidine] and CCOc1nn(-c2ncc(CC)cn2)c(C)c1-c1ccccc1 [example 153, 2-(3-ethoxy-5-methyl-4-phenyl-1H-pyrazol-1-yl)-5-ethylpyrimidine] fall in the same range of MIC50: 0.5 to 5 µM (≈ 0.144 to 1.44 µg/mL) for the first, 0.5 to 5 µM (≈ 0.154 to 1.54 µg/mL) for the second.

First: CCOc1nn(-c2ncc(CC)cn2)c(CN2CCOCC2)c1Cc1ccccc1 [example 115, 4-((4-benzyl-3-ethoxy-1-(5-ethylpyrimidin-2-yl)-1H-pyrazol-5-yl)methyl)morpholine]
Second: CCc1cnc(-n2nc(OC(C)C)c(Cc3ccccc3)c2C)nc1 [example 139, 2-(4-benzyl-3-isopropoxy-5-methyl-1H-pyrazol-1-yl)-5-ethylpyrimidine]
The MIC50 of the first is higher: over 5 µM for the first, 0.0005 to 0.05 µM (≈ 0.000168 to 0.0168 µg/mL) for the second.

First: Cc1cnc(-n2nc(OC(C)C)c(Oc3c(F)cccc3F)c2C)nc1O [example 116, 2-(4-(2,6-difluorophenoxy)-3-isopropoxy-5-methyl-1H-pyrazol-1-yl)-5-methylpyrimidin-4-ol]
Second: CCc1cnc(-n2nc(OC(C)C)c(Oc3c(F)cccc3F)c2C)nc1O [example 117, 2-(4-(2,6-difluorophenoxy)-3-isopropoxy-5-methyl-1H-pyrazol-1-yl)-5-ethylpyrimidin-4-ol]
The MIC50 of the first is higher: 0.05 to 0.5 µM (≈ 0.0188 to 0.188 µg/mL) for the first, 0.0005 to 0.05 µM (≈ 0.000195 to 0.0195 µg/mL) for the second.

First: CCCc1cnc(-n2nc(OC(C)C)c(Oc3c(F)cccc3F)c2C)nc1O [example 117A, 2-(4-(2,6-difluorophenoxy)-3-isopropoxy-5-methyl-1H-pyrazol-1-yl)-5-propylpyrimidin-4-ol]
Second: CCc1nnc(-n2nc(OC(C)C)c(Oc3c(F)cccc3F)c2C)nc1O [example 118, 3-(4-(2,6-difluorophenoxy)-3-isopropoxy-5-methyl-1H-pyrazol-1-yl)-6-ethyl-1,2,4-triazin-5-ol]
The MIC50 of the first is higher: 0.05 to 0.5 µM (≈ 0.0202 to 0.202 µg/mL) for the first, 0.0005 to 0.05 µM (≈ 0.000196 to 0.0196 µg/mL) for the second.

First: c1ccc(Oc2cn(-c3ncc(C4CC4)cn3)nc2C2CC2)cc1 [example 119, 5-cyclopropyl-2-(3-cyclopropyl-4-phenoxy-1H-pyrazol-1-yl)pyrimidine]
Second: c1ccc(Oc2cn(-c3ccc(C4CC4)cn3)nc2C2CC2)cc1 [example 120, 5-cyclopropyl-2-(3-cyclopropyl-4-phenoxy-1H-pyrazol-1-yl)pyridine]
The MIC50 of the first is lower: 0.0005 to 0.05 µM (≈ 0.000159 to 0.0159 µg/mL) for the first, 0.05 to 0.5 µM (≈ 0.0159 to 0.159 µg/mL) for the second.

First: CCc1cnc(-n2nc(CC(C)C)c(Cc3ccccc3)c2C)nc1 [example 121, 2-(4-benzyl-3-isobutyl-5-methyl-1H-pyrazol-1-yl)-5-ethylpyrimidine]
Second: CCc1cnc(-n2nc(OCCCN(C)C)c(Cc3ccccc3)c2C)nc1 [example 140, 3-(4-benzyl-1-(5-ethylpyrimidin-2-yl)-5-methyl-1H-pyrazol-3-yloxy)-N,N-dimethylpropan-1-amine]
The MIC50 of the first is lower: 0.0005 to 0.05 µM (≈ 0.000167 to 0.0167 µg/mL) for the first, 0.5 to 5 µM (≈ 0.19 to 1.9 µg/mL) for the second.

CCOc1nn(-c2ccc(C)nc2)c(C)c1Cc1ccccc1 [example 124, 5-(4-benzyl-3-ethoxy-5-methyl-1H-pyrazol-1-yl)-2-methylpyridine] and CCOc1nn(-c2ccccc2)c(C)c1Cc1ccccc1 [example 134, 4-benzyl-3-ethoxy-5-methyl-1-phenyl-1H-pyrazole] fall in the same range of MIC50: 0.5 to 5 µM (≈ 0.154 to 1.54 µg/mL) for the first, 0.5 to 5 µM (≈ 0.146 to 1.46 µg/mL) for the second.

First: COc1ccc(-n2nc(OC(C)C)c(Oc3c(F)cccc3F)c2C)nc1 [example 126, 2-(4-(2,6-difluorophenoxy)-3-isopropoxy-5-methyl-1H-pyrazol-1-yl)-5-methoxypyridine]
Second: COc1ccc(-n2nc(OC(C)C)c(Oc3c(F)cccc3F)c2C)cn1 [example 130, 5-(4-(2,6-difluorophenoxy)-3-isopropoxy-5-methyl-1H-pyrazol-1-yl)-2-methoxypyridine]
The MIC50 of the first is lower: 0.05 to 0.5 µM (≈ 0.0188 to 0.188 µg/mL) for the first, 0.5 to 5 µM (≈ 0.188 to 1.88 µg/mL) for the second.

CCOc1nn(-c2ccc(C)cn2)c(C)c1Oc1ccccc1 [example 127, 2-(3-ethoxy-5-methyl-4-phenoxy-1H-pyrazol-1-yl)-5-methylpyridine] and COc1nn(-c2ccc(C)cn2)c(C)c1Cc1ccccc1 [example 137, 2-(4-benzyl-3-methoxy-5-methyl-1H-pyrazol-1-yl)-5-methylpyridine] fall in the same range of MIC50: 0.5 to 5 µM (≈ 0.155 to 1.55 µg/mL) for the first, 0.5 to 5 µM (≈ 0.147 to 1.47 µg/mL) for the second.

Cc1ccc(-n2nc(OC(C)C)c(Oc3c(F)cccc3F)c2C)cn1 [example 128, 5-(4-(2,6-difluorophenoxy)-3-isopropoxy-5-methyl-1H-pyrazol-1-yl)-2-methylpyridine] and CCc1ccc(-n2nc(OC(C)C)c(Oc3c(F)cccc3F)c2C)cn1 [example 129, 5-(4-(2,6-difluorophenoxy)-3-isopropoxy-5-methyl-1H-pyrazol-1-yl)-2-ethylpyridine] fall in the same range of MIC50: 0.0005 to 0.05 µM (≈ 0.00018 to 0.018 µg/mL) for the first, 0.0005 to 0.05 µM (≈ 0.000187 to 0.0187 µg/mL) for the second.

Cc1c(Oc2c(F)cccc2F)c(OC(C)C)nn1-c1cnc(C(C)(C)C)nc1 [example 131, 2-tert-butyl-5-(4-(2,6-difluorophenoxy)-3-isopropoxy-5-methyl-1H-pyrazol-1-yl)pyrimidine] and Cc1c(Oc2c(F)cccc2F)c(OC(C)C)nn1-c1cnc(C2CC2)nc1 [example 133, 2-cyclopropyl-5-(4-(2,6-difluorophenoxy)-3-isopropoxy-5-methyl-1H-pyrazol-1-yl)pyrimidine] fall in the same range of MIC50: 0.05 to 0.5 µM (≈ 0.0201 to 0.201 µg/mL) for the first, 0.05 to 0.5 µM (≈ 0.0193 to 0.193 µg/mL) for the second.

First: CCc1ccc(-n2nc(OC(C)C)c(Cc3ccccc3)c2C)cc1 [example 132, 4-benzyl-1-(4-ethylphenyl)-3-isopropoxy-5-methyl-1H-pyrazole]
Second: CCC(C)Oc1nn(-c2ncc(C3CC3)cn2)c(C)c1Cc1ccccc1 (centres unmarked) [example 142, 2-(4-benzyl-3-sec-butoxy-5-methyl-1H-pyrazol-1-yl)-5-cyclopropylpyrimidine]
The MIC50 of the first is higher: 0.5 to 5 µM (≈ 0.167 to 1.67 µg/mL) for the first, 0.0005 to 0.05 µM (≈ 0.000181 to 0.0181 µg/mL) for the second.

CCc1cnc(-n2[nH]c(=O)c(Cc3ccccc3)c2C)nc1 [example 135, 4-benzyl-1-(5-ethylpyrimidin-2-yl)-5-methyl-1H-pyrazol-3(2H)-one] and CCOc1nn(-c2ncc(CC)cn2)c(C)c1C(=O)c1ccccc1 [example 150, (3-ethoxy-1-(5-ethylpyrimidin-2-yl)-5-methyl-1H-pyrazol-4-yl)(phenyl)methanone] fall in the same range of MIC50: 0.5 to 5 µM (≈ 0.147 to 1.47 µg/mL) for the first, 0.5 to 5 µM (≈ 0.168 to 1.68 µg/mL) for the second.

First: Cc1c(Cc2ccccc2)c(O)nn1-c1ncc(C2CC2)cn1 [example 136, 4-benzyl-1-(5-cyclopropylpyrimidin-2-yl)-5-methyl-1H-pyrazol-3-ol]
Second: COc1nn(-c2ncc(C3CC3)cn2)c(C)c1Cc1ccccc1 [example 138, 2-(4-benzyl-3-methoxy-5-methyl-1H-pyrazol-1-yl)-5-cyclopropylpyrimidine]
The MIC50 of the first is higher: 0.5 to 5 µM (≈ 0.153 to 1.53 µg/mL) for the first, 0.05 to 0.5 µM (≈ 0.016 to 0.16 µg/mL) for the second.

First: CCC(CC)Oc1nn(-c2ncc(C3CC3)cn2)c(C)c1Cc1ccccc1 [example 141, 2-(4-benzyl-5-methyl-3-(pentan-3-yloxy)-1H-pyrazol-1-yl)-5-cyclopropylpyrimidine]
Second: CCOc1nn(-c2ncc(CC)cn2)c(C)c1Sc1ccccc1 [example 152, 2-(3-ethoxy-5-methyl-4-(phenylthio)-1H-pyrazol-1-yl)-5-ethylpyrimidine]
The MIC50 of the first is lower: 0.0005 to 0.05 µM (≈ 0.000188 to 0.0188 µg/mL) for the first, 0.05 to 0.5 µM (≈ 0.017 to 0.17 µg/mL) for the second.

COc1cc(-c2ccc(Cl)c(Cl)c2)n(-c2ccccn2)n1 [example 143, 2-(5-(3,4-dichlorophenyl)-3-methoxy-1H-pyrazol-1-yl)pyridine] and COc1cc(-c2ccc(Cl)cc2Cl)n(-c2ccccn2)n1 [example 144, 2-(5-(2,4-dichlorophenyl)-3-methoxy-1H-pyrazol-1-yl)pyridine] cannot be ordered by MIC50: over 5 µM for the first, over 5 µM for the second.

CCOc1cc(-c2ccc(OC)cc2)n(-c2ccccn2)n1 [example 145, 2-(3-ethoxy-5-(4-methoxyphenyl)-1H-pyrazol-1-yl)pyridine] and CCOc1cc(-c2ccc(Cl)cc2)n(-c2ccccn2)n1 [example 147, 2-(5-(4-chlorophenyl)-3-ethoxy-1H-pyrazol-1-yl)pyridine] cannot be ordered by MIC50: over 5 µM for the first, over 5 µM for the second.

COc1cc(-c2ccc(C(C)(C)C)cc2)n(-c2ccccn2)n1 [example 146, 2-(5-(4-tert-butylphenyl)-3-methoxy-1H-pyrazol-1-yl)pyridine] and COc1cccc(Cc2cc(OC)nn2-c2ccccn2)c1 [example 148, 2-(3-methoxy-5-(3-methoxybenzyl)-1H-pyrazol-1-yl)pyridine] cannot be ordered by MIC50: over 5 µM for the first, over 5 µM for the second.

CCOc1cc(C(=O)c2ccc(Cl)cc2)n(-c2ccccn2)n1 [example 149, (4-chlorophenyl)(3-ethoxy-1-(pyridin-2-yl)-1H-pyrazol-5-yl)methanone] and CCOc1nn(-c2ccccn2)cc1-c1ccc(Cl)cc1 [example 157, 2-(4-(4-chlorophenyl)-3-ethoxy-1H-pyrazol-1-yl)pyridine] cannot be ordered by MIC50: over 5 µM for the first, over 5 µM for the second.

Compared with CCOc1nn(-c2ccc(C3CC3)cn2)c(C)c1C(=O)c1ccccc1 [example 151, (1-(5-cyclopropylpyridin-2-yl)-3-ethoxy-5-methyl-1H-pyrazol-4-yl)(phenyl)methanone], CCOc1nn(-c2ccccn2)c(C)c1-c1ccccc1Cl [example 155, 2-(4-(2-chlorophenyl)-3-ethoxy-5-methyl-1H-pyrazol-1-yl)pyridine] is higher in MIC50: 0.05 to 0.5 µM (≈ 0.0174 to 0.174 µg/mL) for the first, over 5 µM for the second.

CCOc1nn(-c2ncc(CC)cn2)c(C)c1-c1ccc(F)cc1F [example 154, 2-(4-(2,4-difluorophenyl)-3-ethoxy-5-methyl-1H-pyrazol-1-yl)-5-ethylpyrimidine] and CCOc1nn(-c2ccccn2)c(C)c1-c1cccc(C(F)(F)F)c1 [example 158, 2-(3-ethoxy-5-methyl-4-(3-(trifluoromethyl)phenyl)-1H-pyrazol-1-yl)pyridine] cannot be ordered by MIC50: over 5 µM for the first, over 5 µM for the second.

In the case of CCOc1nn(-c2ccccn2)c(C)c1-c1cccc(Cl)c1 [example 156, 2-(4-(3-chlorophenyl)-3-ethoxy-5-methyl-1H-pyrazol-1-yl)pyridine], the MIC50 is reported as over 5 µM.
